Tests used:
Experiment in all cases: relative viability (nuclei count vs DMSO), 5 days (fraction); higher = more cells survive
ABC-1 = tested on: ABC-1
Method in brief: (§1)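 Lung cancer cell lines were seeded in 1536-well plates and dosed by pin tool the next day, with either a single drug or a fixed anchor-drug dose combined with five library-drug doses (not always all listed) spaced in √10 steps. Five days later, one step fixed the cells and stained their nuclei (final 0.05% Triton X-100, 1% formaldehyde, 1 ug/ml Hoechst), and nuclei were counted on 4× images. Relative viability is the nuclei count in treated wells divided by the count in vehicle wells, and each value is the median of duplicate plates.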

HCC-827 = tested on: HCC-827
Method in brief: as §1

NCI-H1666 = tested on: NCI-H1666
Method in brief: as §1

NCI-H1975 = tested on: NCI-H1975
Method in brief: as §1

NCI-H322M = tested on: NCI-H322M
Method in brief: as §1

NCI-H2170 = tested on: NCI-H2170
Method in brief: as §1

BEN = tested on: BEN
Method in brief: as §1

LXF-289 = tested on: LXF-289
Method in brief: as §1

HOP-62 = tested on: HOP-62
Method in brief: as §1

NCI-H358 = tested on: NCI-H358
Method in brief: as §1

EPLC-272H = tested on: EPLC-272H
Method in brief: as §1

NCI-H2405 = tested on: NCI-H2405
Method in brief: as §1

UMC-11 = tested on: UMC-11
Method in brief: as §1

NCI-H727 = tested on: NCI-H727
Method in brief: as §1

NCI-H520 = tested on: NCI-H520
Method in brief: as §1

NCI-H3122 = tested on: NCI-H3122
Method in brief: as §1

EKVX = tested on: EKVX
Method in brief: as §1

NCI-H23 = tested on: NCI-H23
Method in brief: as §1

SK-MES-1 = tested on: SK-MES-1
Method in brief: as §1

LU99A = tested on: LU99A
Method in brief: as §1

NCI-H838 = tested on: NCI-H838
Method in brief: as §1

## COCC1(CO)C(=O)C2CCN1CC2 (centres undefined) [PRIMA-1MET] + O=C(CCCCCCC(=O)Nc1ccccc1)NO [Vorinostat] (partner 1 µM)
ABC-1; first compound 0.2 µM
  relative viability: 1.01
ABC-1; first compound 2 µM
  relative viability: 1.09
ABC-1; first compound 6.325 µM
  relative viability: 1.11
ABC-1; first compound 20 µM
  relative viability: 0.262
HCC-827; first compound 0.2 µM
  relative viability: 0.939
HCC-827; first compound 0.6325 µM
  relative viability: 0.173
HCC-827; first compound 2 µM
  relative viability: 0.661
HCC-827; first compound 6.325 µM
  relative viability: 0.816
HCC-827; first compound 20 µM
  relative viability: 0.855
NCI-H1666; first compound 0.2 µM
  relative viability: 1.03
NCI-H1666; first compound 0.6325 µM
  relative viability: 0.915
NCI-H1666; first compound 2 µM
  relative viability: 1.05
NCI-H1666; first compound 6.325 µM
  relative viability: 1.07
NCI-H1666; first compound 20 µM
  relative viability: 0.956
NCI-H1975; first compound 0.2 µM
  relative viability: 0.766
NCI-H1975; first compound 0.6325 µM
  relative viability: 0.657
NCI-H1975; first compound 2 µM
  relative viability: 0.736
NCI-H1975; first compound 6.325 µM
  relative viability: 0.725
NCI-H1975; first compound 20 µM
  relative viability: 0.698
NCI-H322M; first compound 0.2 µM
  relative viability: 1.05
NCI-H322M; first compound 0.6325 µM
  relative viability: 0.806
NCI-H322M; first compound 6.325 µM
  relative viability: 0.994
NCI-H322M; first compound 20 µM
  relative viability: 0.837
NCI-H2170; first compound 0.2 µM
  relative viability: 1.05
NCI-H2170; first compound 0.6325 µM
  relative viability: 0.801
NCI-H2170; first compound 2 µM
  relative viability: 0.721
NCI-H2170; first compound 6.325 µM
  relative viability: 0.795
NCI-H2170; first compound 20 µM
  relative viability: 0.774
BEN; first compound 0.2 µM
  relative viability: 0.664
BEN; first compound 0.6325 µM
  relative viability: 0.389
BEN; first compound 6.325 µM
  relative viability: 0.571
BEN; first compound 20 µM
  relative viability: 0.613
LXF-289; first compound 0.2 µM
  relative viability: 0.864
LXF-289; first compound 0.6325 µM
  relative viability: 0.628
LXF-289; first compound 2 µM
  relative viability: 0.79
LXF-289; first compound 6.325 µM
  relative viability: 0.796
LXF-289; first compound 20 µM
  relative viability: 0.745
HOP-62; first compound 0.2 µM
  relative viability: 0.59
HOP-62; first compound 0.6325 µM
  relative viability: 0.445
HOP-62; first compound 2 µM
  relative viability: 0.488
HOP-62; first compound 6.325 µM
  relative viability: 0.623
HOP-62; first compound 20 µM
  relative viability: 0.245
NCI-H358; first compound 0.2 µM
  relative viability: 0.82
NCI-H358; first compound 0.6325 µM
  relative viability: 0.695
NCI-H358; first compound 2 µM
  relative viability: 0.669
NCI-H358; first compound 6.325 µM
  relative viability: 0.786
NCI-H358; first compound 20 µM
  relative viability: 0.163
EPLC-272H; first compound 0.2 µM
  relative viability: 0.536
EPLC-272H; first compound 0.6325 µM
  relative viability: 0.581
EPLC-272H; first compound 2 µM
  relative viability: 0.417
EPLC-272H; first compound 6.325 µM
  relative viability: 0.534
EPLC-272H; first compound 20 µM
  relative viability: 0.0678
NCI-H2405; first compound 0.2 µM
  relative viability: 1.03
NCI-H2405; first compound 0.6325 µM
  relative viability: 0.945
NCI-H2405; first compound 6.325 µM
  relative viability: 0.934
NCI-H2405; first compound 20 µM
  relative viability: 0.106
UMC-11; first compound 0.2 µM
  relative viability: 0.422
UMC-11; first compound 0.6325 µM
  relative viability: 0.358
UMC-11; first compound 2 µM
  relative viability: 0.385
UMC-11; first compound 6.325 µM
  relative viability: 0.477
UMC-11; first compound 20 µM
  relative viability: 0.479
NCI-H727; first compound 0.2 µM
  relative viability: 0.732
NCI-H727; first compound 0.6325 µM
  relative viability: 0.394
NCI-H727; first compound 6.325 µM
  relative viability: 1.17
NCI-H727; first compound 20 µM
  relative viability: 0.689
NCI-H520; first compound 0.2 µM
  relative viability: 0.807
NCI-H520; first compound 2 µM
  relative viability: 0.621
NCI-H520; first compound 6.325 µM
  relative viability: 0.652
NCI-H520; first compound 20 µM
  relative viability: 0.149
NCI-H3122; first compound 0.2 µM
  relative viability: 1.01
NCI-H3122; first compound 0.6325 µM
  relative viability: 0.861
NCI-H3122; first compound 2 µM
  relative viability: 0.686
NCI-H3122; first compound 6.325 µM
  relative viability: 1.07
NCI-H3122; first compound 20 µM
  relative viability: 0.861
EKVX; first compound 0.2 µM
  relative viability: 0.995
EKVX; first compound 0.6325 µM
  relative viability: 0.548
EKVX; first compound 2 µM
  relative viability: 0.672
EKVX; first compound 6.325 µM
  relative viability: 0.849
EKVX; first compound 20 µM
  relative viability: 0.64
NCI-H23; first compound 0.2 µM
  relative viability: 0.72
NCI-H23; first compound 0.6325 µM
  relative viability: 0.48
NCI-H23; first compound 2 µM
  relative viability: 0.482
NCI-H23; first compound 6.325 µM
  relative viability: 0.569
NCI-H23; first compound 20 µM
  relative viability: 0.0886
SK-MES-1; first compound 0.2 µM
  relative viability: 1.26
SK-MES-1; first compound 0.6325 µM
  relative viability: 1.08
SK-MES-1; first compound 2 µM
  relative viability: 1.05
SK-MES-1; first compound 6.325 µM
  relative viability: 1.24
SK-MES-1; first compound 20 µM
  relative viability: 1.18
LU99A; first compound 0.2 µM
  relative viability: 0.628
LU99A; first compound 0.6325 µM
  relative viability: 0.342
LU99A; first compound 2 µM
  relative viability: 0.54
LU99A; first compound 6.325 µM
  relative viability: 0.436
LU99A; first compound 20 µM
  relative viability: 0.113
NCI-H838; first compound 0.2 µM
  relative viability: 0.769
NCI-H838; first compound 0.6325 µM
  relative viability: 0.691
NCI-H838; first compound 2 µM
  relative viability: 0.694
NCI-H838; first compound 6.325 µM
  relative viability: 0.762
NCI-H838; first compound 20 µM
  relative viability: 0.546
